Data published in patent EP0908457B1, “3-(1,2-benzisothiazol- and isoxazol-5-Y1)-2,4(1H,3H)-pyrimidinedione or thione and 3-(1,2-benzisothiazol- and isoxazol-5-y1)-4(3H)-pyrimidinone or thione herbicidal agents” (BASF AKTIENGESELLSCHAFT, priority 1997, dated 1999).

Tests used:
[1] = test system: Echinochloa oryzoides (Ard.) Fritsch.; assay: Preemergence weed control under flooded paddy conditions, ECHORC (Watergrass (Calif.)); format: in vivo; conditions: flooded paddy; for ECHORC: preemergence weeds, herbicidal effect rating 0-9, three to four weeks after treatment; for herbicidal effect rating, ECHORC / ECHORC herbicidal effect rating: preemergence; for herbicidal effect rating, ECHORC: rated 3-4 weeks after treatment; for ECHORC herbicidal effect rating: rated three to four weeks after treatment
[2] = test system: Monochoria vaginalis, Presl.; assay: Preemergence weed control under flooded paddy conditions, MOOVA (Monochoria); format: in vivo; conditions: flooded paddy; for MOOVA: preemergence weeds, herbicidal effect rating 0-9, three to four weeks after treatment; for herbicidal effect rating, MOOVA / MOOVA herbicidal effect rating: preemergence; for herbicidal effect rating, MOOVA: rated 3-4 weeks after treatment; for MOOVA herbicidal effect rating: rated three to four weeks after treatment
Sagittaria pygmaea, L. = assay: Preemergence weed control under flooded paddy conditions, SAGPY (Arrowhead (Pygmaea)); format: in vivo; conditions: flooded paddy; for SAGPY: preemergence weeds, herbicidal effect rating 0-9, three to four weeks after treatment; for herbicidal effect rating, SAGPY / SAGPY herbicidal effect rating: preemergence; for herbicidal effect rating, SAGPY: rated 3-4 weeks after treatment; for SAGPY herbicidal effect rating: rated three to four weeks after treatment
[3] = test system: Cyperus serotinus, Rottb.; assay: Preemergence weed control under flooded paddy conditions, CYPSE (Flatsedge); format: in vivo; conditions: for CYPSE: preemergence weeds, herbicidal effect rating 0-9, three to four weeks after treatment; for herbicidal effect rating, CYPSE / CYPSE herbicidal effect rating: preemergence; for herbicidal effect rating, CYPSE: rated 3-4 weeks after treatment; for CYPSE herbicidal effect rating: rated three to four weeks after treatment
[4] = test system: Oryza sativa, (L.) Tebonnet; assay: Rice tolerance to post-transplant applications under flooded paddy conditions (Example 187), ORYSAT (Rice, Tebonnet); conditions: for ORYSAT: herbicidal effect rating 0-9, three to four weeks after treatment; for herbicidal effect rating ORYSAT: rated 3-4 weeks after treatment; for ORYSAT herbicidal effect rating: rated three to four weeks after treatment; on herbicidal effect rating ORYSAT: meaning of each grade not given here
Cyperus iria = assay: Preemergence weed control under flooded paddy conditions, CYPIR (Rice Flatsedge); format: in vivo; conditions: flooded paddy; for CYPIR: preemergence weeds, herbicidal effect rating 0-9, three to four weeks after treatment; for herbicidal effect rating, CYPIR / CYPIR herbicidal effect rating: preemergence; for herbicidal effect rating, CYPIR: rated 3-4 weeks after treatment; for CYPIR herbicidal effect rating: rated three to four weeks after treatment

CCOC(=O)c1nsc2cc(F)c(-n3c(=O)cc(C(F)(F)F)n(C)c3=O)cc12 [Example 423, 1,2-Benzisothiazole-3-carboxylic acid, 5-[3,6-dihydro-3-methyl-2,6-dioxo-4-(trifluoromethyl)-1(2H)-pyrimidinyl]-6-fluoro-, ethyl ester]
5.0: ORYSAT ([4]; 0.0320 kg/ha)
9.0: ECHORC ([1]; 0.0620 kg/ha) | ECHORC ([1]; 0.1250 kg/ha) | ECHORC ([1]; 0.2500 kg/ha) | MOOVA ([2]; 0.0320 kg/ha) | MOOVA ([2]; 0.0620 kg/ha) | MOOVA ([2]; 0.1250 kg/ha) | MOOVA ([2]; 0.2500 kg/ha) | SAGPY (Sagittaria pygmaea, L.; 0.0320 kg/ha) | SAGPY (Sagittaria pygmaea, L.; 0.0620 kg/ha) | SAGPY (Sagittaria pygmaea, L.; 0.1250 kg/ha) | SAGPY (Sagittaria pygmaea, L.; 0.2500 kg/ha) | CYPSE ([3]; 0.0320 kg/ha) | CYPSE ([3]; 0.0620 kg/ha) | CYPSE ([3]; 0.1250 kg/ha) | CYPSE ([3]; 0.2500 kg/ha) | CYPIR (Cyperus iria; 0.1250 kg/ha) | CYPIR (Cyperus iria; 0.2500 kg/ha)
7.0: ORYSAT ([4]; 0.1250 kg/ha) | ORYSAT ([4]; 0.2500 kg/ha) | CYPIR (Cyperus iria; 0.0620 kg/ha)
6.0: ECHORC ([1]; 0.0320 kg/ha) | ORYSAT ([4]; 0.0620 kg/ha) | CYPIR (Cyperus iria; 0.0320 kg/ha)

Cn1c(C(F)(F)F)cc(=O)n(-c2ccc3snc(-c4ccccc4OCC(N)=O)c3c2)c1=O [Example 548, Acetamide, 2-{o-{5-[3,6-dihydro-3-methyl-2,6-dioxo-4-(trifluoromethyl)-1(2H)-pyrimidinyl]-1,2-benzisothiazol-3-yl}phenoxy}-]
2.0: herbicidal effect rating, SAGPY (Sagittaria pygmaea, L.; Rate 0.1250 kg/ha) | herbicidal effect rating ORYSAT ([4]; Rate 0.0620 kg/ha) | herbicidal effect rating, CYPIR (Cyperus iria; Rate 0.0320 kg/ha)
4.9: herbicidal effect rating, ECHORC ([1]; Rate 0.1250 kg/ha)
0.0: herbicidal effect rating, SAGPY (Sagittaria pygmaea, L.; Rate 0.0320 kg/ha) | herbicidal effect rating, SAGPY (Sagittaria pygmaea, L.; Rate 0.0620 kg/ha) | herbicidal effect rating, SAGPY (Sagittaria pygmaea, L.; Rate 0.5000 kg/ha) | herbicidal effect rating, CYPIR (Cyperus iria; Rate 0.5000 kg/ha)
3.7: herbicidal effect rating, ECHORC ([1]; Rate 0.0620 kg/ha)
6.0: herbicidal effect rating, ECHORC ([1]; Rate 0.5000 kg/ha) | herbicidal effect rating ORYSAT ([4]; Rate 0.2500 kg/ha) | herbicidal effect rating, CYPIR (Cyperus iria; Rate 0.0620 kg/ha)
3.0: herbicidal effect rating ORYSAT ([4]; Rate 0.0320 kg/ha)
2.9: herbicidal effect rating, ECHORC ([1]; Rate 0.0320 kg/ha)
9.0: herbicidal effect rating, ECHORC ([1]; Rate 0.2500 kg/ha) | herbicidal effect rating, MOOVA ([2]; Rate 0.0620 kg/ha) | herbicidal effect rating, MOOVA ([2]; Rate 0.1250 kg/ha) | herbicidal effect rating, MOOVA ([2]; Rate 0.2500 kg/ha) | herbicidal effect rating, MOOVA ([2]; Rate 0.5000 kg/ha) | herbicidal effect rating, CYPSE ([3]; Rate 0.0620 kg/ha) | herbicidal effect rating, CYPSE ([3]; Rate 0.1250 kg/ha) | herbicidal effect rating, CYPSE ([3]; Rate 0.2500 kg/ha) | herbicidal effect rating, CYPSE ([3]; Rate 0.5000 kg/ha) | herbicidal effect rating, CYPIR (Cyperus iria; Rate 0.2500 kg/ha)
4.0: herbicidal effect rating, SAGPY (Sagittaria pygmaea, L.; Rate 0.2500 kg/ha) | herbicidal effect rating ORYSAT ([4]; Rate 0.1250 kg/ha) | herbicidal effect rating ORYSAT ([4]; Rate 0.5000 kg/ha)
8.0: herbicidal effect rating, MOOVA ([2]; Rate 0.0320 kg/ha) | herbicidal effect rating, CYPIR (Cyperus iria; Rate 0.1250 kg/ha)

CCOc1ccc2sc(S(=O)(=O)NC(=O)COc3ccc(C)cc3-c3nsc4ccc(-n5c(=O)cc(C(F)(F)F)n(C)c5=O)cc34)nc2c1 [Example 289, Acetamide, 2-{{2-{5-[3,6-dihydro-3-methyl-2,6-dioxo-4-(trifluoromethyl)-1(2H)-pyrimidinyl]-1,2-benzisothiazol-3-yl}-p-tolyl}oxy}-N-[(5-ethoxybenzothiazol-2-yl)sulfonyl]-]
2.0: ECHORC herbicidal effect rating ([1]; Rate 0.0620 kg/ha)
0.0: ECHORC herbicidal effect rating ([1]; Rate 0.0320 kg/ha) | MOOVA herbicidal effect rating ([2]; Rate 0.0320 kg/ha) | MOOVA herbicidal effect rating ([2]; Rate 0.0620 kg/ha) | SAGPY herbicidal effect rating (Sagittaria pygmaea, L.; Rate 0.0320 kg/ha) | SAGPY herbicidal effect rating (Sagittaria pygmaea, L.; Rate 0.0620 kg/ha) | SAGPY herbicidal effect rating (Sagittaria pygmaea, L.; Rate 0.1250 kg/ha) | SAGPY herbicidal effect rating (Sagittaria pygmaea, L.; Rate 0.2500 kg/ha) | CYPSE herbicidal effect rating ([3]; Rate 0.0320 kg/ha) | CYPSE herbicidal effect rating ([3]; Rate 0.0620 kg/ha) | CYPSE herbicidal effect rating ([3]; Rate 0.1250 kg/ha) | CYPSE herbicidal effect rating ([3]; Rate 0.2500 kg/ha) | ORYSAT herbicidal effect rating ([4]; Rate 0.0320 kg/ha) | ORYSAT herbicidal effect rating ([4]; Rate 0.0620 kg/ha) | ORYSAT herbicidal effect rating ([4]; Rate 0.1250 kg/ha) | ORYSAT herbicidal effect rating ([4]; Rate 0.2500 kg/ha) | CYPIR herbicidal effect rating (Cyperus iria; Rate 0.0320 kg/ha) | CYPIR herbicidal effect rating (Cyperus iria; Rate 0.0620 kg/ha)
4.0: ECHORC herbicidal effect rating ([1]; Rate 0.2500 kg/ha)
9.0: MOOVA herbicidal effect rating ([2]; Rate 0.1250 kg/ha) | MOOVA herbicidal effect rating ([2]; Rate 0.2500 kg/ha) | CYPIR herbicidal effect rating (Cyperus iria; Rate 0.1250 kg/ha) | CYPIR herbicidal effect rating (Cyperus iria; Rate 0.2500 kg/ha)
3.0: ECHORC herbicidal effect rating ([1]; Rate 0.1250 kg/ha)
